Bridge positions count the residues as written; N and C are the ends. Square brackets hold non-standard residues; d marks the D form. Peptide text beside a SMILES is read from it. * marks the point of attachment. ξ: configuration not given here. Phe(3-CF3) = N[C@@H](Cc1cccc(C(F)(F)F)c1)C(=O)O; Phe(4-COOH) = N[C@@H](Cc1ccc(C(=O)O)cc1)C(=O)O; Bip = N[C@@H](Cc1ccc(-c2ccccc2)cc1)C(=O)O; NH(CH2)14COOH = O=C(O)CCCCCCCCCCCCCCN*; Phe(3-Me) = Cc1cccc(C[C@H](N)C(=O)O)c1; NH(CH2)12COOH = O=C(O)CCCCCCCCCCCCN*; Val(3-OH) = CC(C)(O)[C@H](N)C(=O)O; Cha = N[C@@H](CC1CCCCC1)C(=O)O; Thr(3ξ) = CC(O)[C@H](N)C(=O)O; Carboxymethyl = O=C(O)C*; Orn = NCCC[C@H](N)C(=O)O; Dab = NCC[C@H](N)C(=O)O; AEEA = NCCOCCOCC(=O)O

The assay deals with T1, PD-1/PD-L1 interaction (PE-labeled human PD-L1-Ig binding to Jurkat cell line over-expressing human PD-1) (Homo sapiens, UniProt Q15116).
T1 construct: expressed in transfected cells; host or cells: Jurkat
T1 sequence (Q15116 25-288): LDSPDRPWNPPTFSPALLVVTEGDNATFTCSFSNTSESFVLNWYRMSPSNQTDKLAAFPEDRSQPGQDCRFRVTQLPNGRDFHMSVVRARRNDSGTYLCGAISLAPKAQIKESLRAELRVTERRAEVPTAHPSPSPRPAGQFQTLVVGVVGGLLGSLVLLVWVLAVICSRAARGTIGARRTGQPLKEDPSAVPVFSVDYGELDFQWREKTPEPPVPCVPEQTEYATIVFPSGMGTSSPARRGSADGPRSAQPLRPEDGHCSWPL
In words: Jurkat-PD-1 Cell Binding High-Content Screening Assay (CBA). The class given is cell-based. The following applies: Jurkat cell line over-expressing human PD-1; PE-labeled PD-L1-Ig 20 nM final; read-out: Jurkat hPD1-PDL1 IC50. Put shortly: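 Jurkat cells over-expressing human PD-1 (8×10^3 per well, DMEM/10% FCS) preincubated with compound 2 h at 37° C, then PE-labeled human PD-L1-Ig (20 nM final) added for 1 h. Cells fixed with paraformaldehyde, Hoechst-stained, and bound fluorescence quantified by high-content imaging.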
As usually defined, the IC50 is the concentration that inhibits the measured activity by half. In the case of `Cc1cccc(C[C@@H]2NC(=O)[C@H](CC(=O)O)NC(=O)[C@H](Cc3ccc(OCC(=O)O)cc3)NC(=O)[C@H](Cc3ccc(OCC(=O)O)cc3)NC(=O)CSC[C@@H](C(=O)N[C@@H](CCN)C(=O)NCCOCCOCC(=O)NCCCCCCCCCCCCC(=O)O)NC(=O)[C@H](CO)NC(=O)[C@H](C(C)(C)O)NC(=O)[C@H](CC3CCCCC3)NC(=O)[C@H](CCN)NC(=O)[C@@H](CC(C)C)NC(=O)[C@H](CCCN)NC(=O)[C@H](Cc3ccc(C(=O)O)cc3)NC(=O)[C@H](Cc3ccc(-c4ccccc4)cc3)NC(=O)[C@H](Cc3ccc(C(=O)O)cc3)NC2=O)c1` [Compound 3842] ({CH2CO}-Y(Carboxymethyl)Y(Carboxymethyl)D[Phe(3-Me)][Phe(4-COOH)][Bip][Phe(4-COOH)][Orn][dL][Dab][Cha][Val(3-OH)]SC[Dab][AEEA]-{NH(CH2)12COOH}; thioether N-14), the IC50 is 16.1 nM.
As for `Cc1cccc(C[C@@H]2NC(=O)[C@H](CC(=O)O)NC(=O)[C@H](Cc3ccc(OCC(=O)O)cc3)NC(=O)[C@H](C(C)O)NC(=O)CSC[C@@H](C(=O)N[C@@H](CCN)C(=O)NCCOCCOCC(=O)NCCCCCCCCCCCCC(=O)O)NC(=O)[C@H](CC(=O)O)NC(=O)[C@H](C(C)C)NC(=O)[C@H](CC3CCCCC3)NC(=O)[C@H](CCN)NC(=O)[C@@H](CC(C)C)NC(=O)[C@H](CCCN)NC(=O)[C@H](Cc3ccc(C(=O)O)cc3)NC(=O)[C@H](Cc3ccc(-c4ccccc4)cc3)NC(=O)[C@H](Cc3ccc(C(=O)O)cc3)NC2=O)c1` (stereo partly drawn) [Compound 3843] ({CH2CO}-[Thr(3ξ)]Y(Carboxymethyl)D[Phe(3-Me)][Phe(4-COOH)][Bip][Phe(4-COOH)][Orn][dL][Dab][Cha]VDC[Dab][AEEA]-{NH(CH2)12COOH}; thioether N-14), the figure is 40.7 nM; as for `Cc1cccc(C[C@@H]2NC(=O)[C@H](CC(=O)O)NC(=O)[C@H](Cc3ccc(OCC(=O)O)cc3)NC(=O)[C@H](C(C)O)NC(=O)CSC[C@@H](C(=O)N[C@@H](CCN)C(=O)NCCCCCCCCCCCCC(=O)O)NC(=O)[C@H](CO)NC(=O)[C@H](C(C)(C)O)NC(=O)[C@H](CC3CCCCC3)NC(=O)[C@H](CCN)NC(=O)[C@@H](CC(C)C)NC(=O)[C@H](CCCN)NC(=O)[C@H](Cc3ccc(OCC(=O)O)cc3)NC(=O)[C@H](Cc3ccc(-c4ccccc4)cc3)NC(=O)[C@H](Cc3ccc(OCC(=O)O)cc3)NC2=O)c1` (stereo partly drawn) [Compound 3844] ({CH2CO}-[Thr(3ξ)]Y(Carboxymethyl)D[Phe(3-Me)]Y(Carboxymethyl)[Bip]Y(Carboxymethyl)[Orn][dL][Dab][Cha][Val(3-OH)]SC[Dab]-{NH(CH2)12COOH}; thioether N-14), 15.2 nM.
As to `CC(C)C[C@H]1NC(=O)[C@H](CCCN)NC(=O)[C@H](Cc2ccc(C(=O)O)cc2)NC(=O)[C@H](Cc2ccc(-c3ccccc3)cc2)NC(=O)[C@H](Cc2ccc(C(=O)O)cc2)NC(=O)[C@H](Cc2cccc(C(F)(F)F)c2)NC(=O)[C@H](CC(=O)O)NC(=O)[C@H](Cc2ccc(OCC(=O)O)cc2)NC(=O)[C@H](Cc2ccc(OCC(=O)O)cc2)NC(=O)CSC[C@@H](C(=O)N[C@@H](CCN)C(=O)NCCCCCCCCCCCCCCC(=O)O)NC(=O)[C@H](CC(=O)O)NC(=O)[C@H](C(C)C)NC(=O)[C@H](CC2CCCCC2)NC(=O)[C@H](CCN)NC1=O` [Compound 3848] ({CH2CO}-Y(Carboxymethyl)Y(Carboxymethyl)D[Phe(3-CF3)][Phe(4-COOH)][Bip][Phe(4-COOH)][Orn][dL][Dab][Cha]VDC[Dab]-{NH(CH2)14COOH}; thioether N-14), the concentration for half-maximal inhibition (IC50) is 317 nM.
As for `CC(C)C[C@H]1NC(=O)[C@H](CCCN)NC(=O)[C@H](Cc2ccc(C(=O)O)cc2)NC(=O)[C@H](Cc2ccc(-c3ccccc3)cc2)NC(=O)[C@H](Cc2ccc(C(=O)O)cc2)NC(=O)[C@H](Cc2cccc(C(F)(F)F)c2)NC(=O)[C@H](CC(=O)O)NC(=O)[C@H](Cc2ccc(OCC(=O)O)cc2)NC(=O)[C@H](Cc2ccc(OCC(=O)O)cc2)NC(=O)CSC[C@@H](C(=O)N[C@@H](CCN)C(=O)NCCCCCCCCCCCCCCC(=O)O)NC(=O)[C@H](CCC(=O)O)NC(=O)[C@H](C(C)C)NC(=O)[C@H](CC2CCCCC2)NC(=O)[C@H](CCN)NC1=O` [Compound 3849] ({CH2CO}-Y(Carboxymethyl)Y(Carboxymethyl)D[Phe(3-CF3)][Phe(4-COOH)][Bip][Phe(4-COOH)][Orn][dL][Dab][Cha]VEC[Dab]-{NH(CH2)14COOH}; thioether N-14), the figure is 250 nM.
With `CC(=O)NCCCC[C@@H]1NC(=O)[C@H](C(C)(C)O)NC(=O)[C@H](CC2CCCCC2)NC(=O)[C@H](CCN)NC(=O)[C@@H](CC(C)C)NC(=O)[C@H](CCCN)NC(=O)[C@H](Cc2ccc(OCC(=O)O)cc2)NC(=O)[C@H](Cc2ccc(-c3ccccc3)cc2)NC(=O)[C@H](Cc2ccc(OCC(=O)O)cc2)NC(=O)[C@H](Cc2cccc(C(F)(F)F)c2)NC(=O)[C@H](CC(=O)O)NC(=O)[C@H](Cc2ccc(OCC(=O)O)cc2)NC(=O)[C@H](Cc2ccc(OCC(=O)O)cc2)NC(=O)CSC[C@@H](C(=O)N[C@@H](CCN)C(=O)NCCOCCOCC(=O)NCCCCCCCCCCCCCCC(=O)O)NC1=O` [Compound 3850] ({CH2CO}-Y(Carboxymethyl)Y(Carboxymethyl)D[Phe(3-CF3)]Y(Carboxymethyl)[Bip]Y(Carboxymethyl)[Orn][dL][Dab][Cha][Val(3-OH)]K(Ac)C[Dab][AEEA]-{NH(CH2)14COOH}; thioether N-14) the figure was 282 nM; with `Cc1cccc(C[C@@H]2NC(=O)[C@H](CC(=O)O)NC(=O)[C@H](Cc3ccc(OCC(=O)O)cc3)NC(=O)[C@H](C)NC(=O)CSC[C@@H](C(=O)N[C@@H](CCN)C(=O)NCCOCCOCC(=O)NCCCCCCCCCCCCCCC(=O)O)NC(=O)[C@H](Cc3cnc[nH]3)NC(=O)[C@H](C(C)(C)O)NC(=O)[C@H](CC3CCCCC3)NC(=O)[C@H](CCN)NC(=O)[C@@H](CC(C)C)NC(=O)[C@H](CCCN)NC(=O)[C@H](Cc3ccc(OCC(=O)O)cc3)NC(=O)[C@H](Cc3ccc(-c4ccccc4)cc3)NC(=O)[C@H](Cc3ccc(OCC(=O)O)cc3)NC2=O)c1` [Compound 3851] ({CH2CO}-AY(Carboxymethyl)D[Phe(3-Me)]Y(Carboxymethyl)[Bip]Y(Carboxymethyl)[Orn][dL][Dab][Cha][Val(3-OH)]HC[Dab][AEEA]-{NH(CH2)14COOH}; thioether N-14), 125 nM; with `CC(C)C[C@H]1NC(=O)[C@H](CCCN)NC(=O)[C@H](Cc2ccc(OCC(=O)O)cc2)NC(=O)[C@H](Cc2ccc(-c3ccccc3)cc2)NC(=O)[C@H](Cc2ccc(OCC(=O)O)cc2)NC(=O)[C@H](Cc2cccc(C(F)(F)F)c2)NC(=O)[C@H](CC(=O)O)NC(=O)[C@H](Cc2ccc(OCC(=O)O)cc2)NC(=O)[C@H](C)NC(=O)CSC[C@@H](C(=O)N[C@@H](CCN)C(=O)NCCCCCCCCCCCCCCC(=O)O)NC(=O)[C@H](Cc2cnc[nH]2)NC(=O)[C@H](C(C)(C)O)NC(=O)[C@H](CC2CCCCC2)NC(=O)[C@H](CCN)NC1=O` [Compound 3852] ({CH2CO}-AY(Carboxymethyl)D[Phe(3-CF3)]Y(Carboxymethyl)[Bip]Y(Carboxymethyl)[Orn][dL][Dab][Cha][Val(3-OH)]HC[Dab]-{NH(CH2)14COOH}; thioether N-14), 142 nM.

The values above are taken from US20260022142A1, “MACROCYCLIC IMMUNOMODULATORS” (Bristol-Myers Squibb Company, priority 2022, published 2026).
